Experimental data published in PubChem BioAssay AID652188 (Johns Hopkins Ion Channel Center, 2013).
The source made the active and inactive calls.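 How the source made its calls: active means peak TASK1 channel inhibition over 30% at some tested dose, plus a fitted dose response curve; inactive means no inhibition at any dose, or no curve fitted.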

Tested on: not listed separately
Test: thallium flux inhibition in parental CHO, SAR follow-up, counter-screen for TASK1 inhibitor project, cell-based, FluxOR thallium flux, CRC (AID 652188)
Details: CHO parental cells, FluxOR thallium flux counter-screen; at 30 µM (top of the series)

Structure (SMILES) | flux ratio, lower = inhibition
CCCC(=O)C1CCN(c2ncnc3c2CN(C(=O)c2ccc(-c4ccccc4)cc2)CC3)CC1 | 0.302 (inactive)
COc1ccccc1C(=O)Nc1cccc(NC(=O)c2cccc(C)c2)c1 | 0.322 (inactive)
Cc1cccc(C(=O)Nc2cccc(NC(=O)c3ccccc3)c2)c1 | 0.319 (inactive)
COc1c(F)cccc1C(=O)Nc1cccc(NC(=O)c2cccc(C)c2)c1 | 0.317 (inactive)
COc1ccccc1C(=O)Nc1cc(NC(=O)c2cccc(C)c2)ccc1F | 0.306 (inactive)
COc1ccc(CC(=O)NCc2ccccc2-c2ccccc2C(=O)NCc2ccc(F)cc2F)cc1 | 0.295 (inactive)
O=C(Nc1cccc(NC(=O)c2cccc(F)c2)c1)c1ccccc1 | 0.326 (inactive)
Cc1cccc(C(=O)Nc2cccc(NC(=O)c3cccs3)c2)c1 | 0.334 (inactive)
COc1ccccc1C(=O)Nc1cc(NC(=O)c2ccccc2C(C)C)ccc1F | 0.298 (inactive)
Cc1cccc(C(=O)Nc2cccc(NC(=O)c3cccc(C(F)(F)F)c3)c2)c1 | 0.304 (inactive)
Cc1cccc(C(=O)Nc2cccc(NC(=O)c3ccncc3)c2)c1 | 0.32 (inactive)
Cc1cccc(C(=O)Nc2cccc(NC(=O)c3cccc(F)c3)c2)c1 | 0.313 (inactive)
COc1cnccc1C(=O)Nc1cccc(NC(=O)c2cccc(C)c2)c1 | 0.339 (inactive)
COc1ccc(F)cc1C(=O)Nc1cccc(NC(=O)c2cccc(C)c2)c1 | 0.311 (inactive)

Tested on: CHO parental cells, FluxOR thallium flux counter-screen
Test: as above
Details: not given

Structure (SMILES) | IC50 [nM]
O=C(Nc1cccc(NC(=O)c2ccccc2)c1)c1ccccc1 | 240
CCOc1ccccc1C(=O)Nc1cccc(NC(=O)c2cccc(C)c2)c1 | 1240
